Reference: PMC6835763, “Influence of Short Cationic Lipopeptides with Fatty Acids of Different Chain Lengths on Bacterial Biofilms Formed on Polystyrene and Hydrogel Surfaces” (Pharmaceutics, 2019)
Where a SMILES comes first, the peptide text is derived from it. Bridges are numbered along the chain shown (N, C = ends). Roman numbers before positions name the chains, in order. The star is where a group is joined. Palmitoyl = CCCCCCCCCCCCCCCC(=O)*; Myristoyl = CCCCCCCCCCCCCC(=O)*; Lauroyl = CCCCCCCCCCCC(=O)*

Tests used:
[1] = RP-HPLC retention to evaluate the hydrophobicity of lipopeptides; type: physicochemical; conditions: chromatographic, Luna C18(2) 3.0 × 100 mm, 5.0 µm, linear 20–80% acetonitrile in water over 10 min, 0.1% formic acid, 0.5 mL/min, UV 214 nm, used to evaluate hydrophobicity
Experimental: The crude peptide was lyophilized and subsequently purified by RP-HPLC. The purifications were carried out on a Phenomenex Gemini-NX C18 column (21.20 × 100 mm, 5.0 µm particle size, and 110 Å pore size). Acetonitrile and water, both containing 0.1% of TFA, were used as the mobile phase. UV detection at 214 nm was used. The crude peptides were eluted with a linear 20–80% acetonitrile gradient in deionized water over 60 min at a flow rate of 10.0 mL/min. The purity and identity of the peptides were confirmed with LC-MS analysis. A Waters Alliance e2695 RP-HPLC system (Waters, Milford, MA, USA) with Waters 2998 PDA (Waters, Milford, MA, USA) and Acquity QDA detectors (Empower®3 software, Database Version 7.21.00.00) was used. All analyses were carried out on a Phenomenex, Luna C18(2) column (3.0 × 100 mm, 5.0 µm particle size, 100 Å pore size). The samples were analyzed with a linear 20–80% acetonitrile gradient in deionized water over 10 min at a flow rate of 0.5 mL/min with UV detection at 214 nm. Both eluents contained 0.1% (v/v) of formic acid. The pure fractions (>95%, by HPLC analysis) were collected and lyophilized. The retention time and percentage of ACN (%) at which each peptide was eluted are included in Table 1 to evaluate the hydrophobicity of lipopeptides. The identity of all compounds was confirmed using mass spectrometry (Waters Alliance e2695 system with Acquity QDA detector, Waters, Milford, MA, USA) with electrospray ionization in positive ion mode (ESI-MS). In this mode, a proton is attached to basic moieties (amine groups, guanidine groups). The theoretical mass of the peptide was calculated and then expected ions (m/z—mass to charge ratio) were compared to measured m/z. The results are presented in Table 1, and mass spectra are presented in the Supplementary Materials.

[2] = tested on: Staphylococcus aureus ATCC 25923; type: cell-based; conditions: ATCC 25923, 24 h
Experimental: (§1) The biofilms of bacteria associated with the biofilm-related infections were cultured on 96-well flat bottom PS and on CL placed in 24-well plates. The bacteria at initial inoculums of 5 × 10^8 CFU/mL in MHB II were added to the plates and incubated at 37 °C under aerobic conditions. After 24 h of incubation, all cultures were rinsed three times with PBS and fresh medium was added. Subsequently, the obtained biofilm cultures were exposed to solutions of antimicrobials applied at graded concentrations ranging from 1 to 512 μg/mL for 24 h at 37 °C. The anti-biofilm activity of antimicrobials was visualized by resazurin (final concentration per sample = 0.005%) in the same way as in the MBFIC assay. All experiments were performed in triplicate and included growth controls (positive control: bacterial suspension without antimicrobials) and sterility controls (negative controls: sterile MBH II medium).

[3] = tested on: Escherichia coli ATCC 25922; type: cell-based; conditions: ATCC 25922, 24 h
Experimental: as §1

[4] = tested on: Staphylococcus epidermidis ATCC 14990; type: cell-based; conditions: ATCC 14990, 24 h
Experimental: as §1

[5] = tested on: Pseudomonas aeruginosa ATCC 9027; type: cell-based; conditions: ATCC 9027, 24 h
Experimental: as §1

[6] = tested on: Proteus mirabilis PCM 543; type: cell-based; conditions: PCM 543, 24 h
Experimental: as §1

[7] = tested on: Enterococcus faecalis ATCC 29212; type: cell-based; conditions: ATCC 29212, 24 h
Experimental: as §1

[8] = tested on: Staphylococcus aureus ATCC 25923; experiment: MBFIC assay (biofilm formation inhibition, resazurin); type: cell-based; conditions: for MBFIC S. aureus, CL: contact lenses (CL, Etafilcon A hydrogel) in 24-well plates; for MBFIC S. aureus, CL / MBFIC S. aureus, PS: ca. 5 × 10^8 CFU/mL in MHB II, 37 °C, 18 h, resazurin, visual, triplicate; for MBFIC S. aureus, PS: polystyrene plates (PS), 96-well
Experimental: (§2) To determine the inhibitory effect of antimicrobials on the formation of biofilm on hydrophobic surfaces, the bacterial suspensions of strains (initial inoculum of ca. 5 × 10^8 CFU/mL in MHB II medium supplemented with antimicrobials) were cultured on 96-well PS at 37 °C for 18 h under aerobic conditions. After incubation, the suspensions were aspirated, and the wells were rinsed three times with sterile phosphate buffer PBS (AppliChem, Darmstadt, Germany) in order to remove the planktonic cells. Resazurin (final concentration per sample = 0.005%) was applied as a cell viability reagent for reading the results. In contact with the living cells, the dye is metabolized by bacterial dehydrogenases, resulting in a reduction of blue resazurin to pink resorufin. All assays were performed in triplicate and included the growth controls (positive controls: bacterial suspensions without antimicrobials) and the sterility controls (negative controls: a sterile MBH medium). After 1h of incubation, a visual evaluation of results was made. […] In a preliminary study, it was established that the application of lipopeptides at a concentration found active from visual evaluation caused the reduction of bacterial metabolism to approximately 10% (or less) of the positive control once the results were evaluated with a spectrophotometer. After 1 h of incubation with the dye, absorbance was measured at 570 and 600 nm using a microplate reader (Thermo Fisher Scientific, Waltham, MA, USA). The metabolic activity of bacteria in the samples was measured according to the formula presented in the previous paper.
(§3) The MBFIC assay with CL was applied in order to access the influence of lipopeptides on the biofilm formation on hydrogel surfaces. The entire sterile CL (1-Day Acuvue Moist, containing Etafilcon A., purchased from Johnson & Johnson (Vision Care, Jacksonsville, FL, USA), were placed in 24-well PS (Orange Scientific, Braine-l’ Alleud, Belgium) and the MBFICs were determined according to the above protocol.

[9] = tested on: Escherichia coli ATCC 25922; experiment: as above; type: cell-based; conditions: ca. 5 × 10^8 CFU/mL in MHB II, 37 °C, 18 h, visual, triplicate; for MBFIC E. coli, CL: contact lenses (CL, Etafilcon A hydrogel) in 24-well plates; for MBFIC E. coli, PS: polystyrene plates (PS), 96-well
Experimental: as §2, §3

[10] = tested on: Staphylococcus epidermidis ATCC 14990; experiment: as above; type: cell-based; conditions: for MBFIC S. epidermidis, CL: contact lenses (CL, Etafilcon A hydrogel) in 24-well plates; for MBFIC S. epidermidis, CL / MBFIC S. epidermidis, PS: ca. 5 × 10^8 CFU/mL in MHB II, 37 °C, 18 h, resazurin, visual, triplicate; for MBFIC S. epidermidis, PS: polystyrene plates (PS), 96-well
Experimental: as §2, §3

[11] = tested on: Pseudomonas aeruginosa ATCC 9027; experiment: as above; type: cell-based; conditions: ca. 5 × 10^8 CFU/mL in MHB II, 37 °C, 18 h, visual, triplicate; for MBFIC P. aeruginosa, CL: contact lenses (CL, Etafilcon A hydrogel) in 24-well plates; for MBFIC P. aeruginosa, PS: polystyrene plates (PS), 96-well
Experimental: as §2, §3

[12] = tested on: Proteus mirabilis PCM 543; experiment: as above; type: cell-based; conditions: ca. 5 × 10^8 CFU/mL in MHB II, 37 °C, 18 h, visual, triplicate; for MBFIC P. mirabilis, CL: contact lenses (CL, Etafilcon A hydrogel) in 24-well plates; for MBFIC P. mirabilis, PS: polystyrene plates (PS), 96-well
Experimental: as §2, §3

[13] = tested on: Enterococcus faecalis ATCC 29212; experiment: as above; type: cell-based; conditions: ca. 5 × 10^8 CFU/mL in MHB II, 37 °C, 18 h, visual, triplicate; for MBFIC E. faecalis, CL: contact lenses (CL, Etafilcon A hydrogel) in 24-well plates; for MBFIC E. faecalis, PS: polystyrene plates (PS), 96-well
Experimental: as §2, §3

Structure (SMILES)	% ACN at which the peptide was eluted [1]	tR' (adjusted retention time) [1]	MBEC S. aureus, CL [2]	MBEC E. coli, CL [3]	MBEC S. epidermidis, CL [4]	MBEC P. aeruginosa, CL [5]	MBEC P. mirabilis, CL [6]	MBEC E. faecalis, CL [7]	MBFIC S. aureus, CL [8]	MBFIC S. aureus, PS [8]	MBFIC E. coli, CL [9]	MBFIC E. coli, PS [9]	MBFIC S. epidermidis, CL [10]	MBFIC S. epidermidis, PS [10]	MBFIC P. aeruginosa, CL [11]	MBFIC P. aeruginosa, PS [11]	MBFIC P. mirabilis, CL [12]	MBFIC P. mirabilis, PS [12]	MBFIC E. faecalis, CL [13]	MBFIC E. faecalis, PS [13]	further results
CCCCCCCCCCCC(=O)N[C@@H](CCCCN)C(=O)N[C@@H](CCCCN)C(=O)N[C@@H](CSSC[C@H](NC(=O)[C@H](CCCCN)NC(=O)[C@H](CCCCN)NC(=O)CCCCCCCCCCC)C(N)=O)C(N)=O [Lipopeptide 1, C12-KKC-NH2] (I: Lauroyl-Lys-Lys-Cys-NH2 / II: Lauroyl-Lys-Lys-Cys-NH2; disulfide I:3-II:3)	38.6%	3.10 min	256 µg/mL	256/256 μg/mL	128 µg/mL	256 µg/mL	>512/>512 μg/mL	128 µg/mL	32/32 μg/mL	32/32 μg/mL	128/128 μg/mL	128/128 μg/mL	16 µg/mL	8 µg/mL	128 µg/mL	512 µg/mL	>512/>512 μg/mL	>512/>512 μg/mL	64 µg/mL	16 µg/mL	concentrations inhibiting formation of SE biofilm (MBFIC range) ([10]; range over PS and CL): 8 to 16 µg/mL
CCCCCCCCCCCCCC(=O)N[C@@H](CCCCN)C(=O)N[C@@H](CCCCN)C(=O)N[C@@H](CSSC[C@H](NC(=O)[C@H](CCCCN)NC(=O)[C@H](CCCCN)NC(=O)CCCCCCCCCCCCC)C(N)=O)C(N)=O [Lipopeptide 3, C14-KKC-NH2] (I: Myristoyl-Lys-Lys-Cys-NH2 / II: Myristoyl-Lys-Lys-Cys-NH2; disulfide I:3-II:3)	43.3%	3.88 min	128/128 μg/mL	512/512 μg/mL	512 µg/mL	> 512 µg/mL	512/>512 μg/mL	256/256 μg/mL	32 µg/mL	64 µg/mL	64 µg/mL	256 µg/mL	32 µg/mL	64 µg/mL	512/512 μg/mL	512/512 μg/mL	512/512 μg/mL	512/512 μg/mL	64 µg/mL	256 µg/mL	–
CCCCCCCCCCCCCC(=O)N[C@@H](CCCCN)C(=O)N[C@@H](CCCNC(=N)N)C(N)=O [Lipopeptide 4, C14-KR-NH2] (Myristoyl-Lys-Arg-NH2)	39.7%	3.29 min	512 µg/mL	256 µg/mL	32 µg/mL	>512/>512 μg/mL	>512/>512 μg/mL	256 µg/mL	2 µg/mL	16 µg/mL	128/128 μg/mL	128/128 μg/mL	32/32 μg/mL	32/32 μg/mL	128 µg/mL	256 µg/mL	512/>512 μg/mL	512/>512 μg/mL	64 µg/mL	128 µg/mL	concentrations inhibiting formation of SA biofilm (MBFIC range) ([8]; range over PS and CL): 2 to 16 µg/mL
CCCCCCCCCCCCCCCC(=O)N[C@@H](CCCCN)C(=O)NCC(=O)N[C@@H](CCCCN)C(N)=O [Lipopeptide 5, C16-KGK-NH2] (Palmitoyl-Lys-Gly-Lys-NH2)	43.7%	3.95 min	512 µg/mL	64 µg/mL	128 µg/mL	256 µg/mL	>512/>512 μg/mL	32 µg/mL	32/32 μg/mL	32/32 μg/mL	128 µg/mL	64 µg/mL	64 µg/mL	32 µg/mL	256 µg/mL	512 µg/mL	>512/512 μg/mL	>512/512 μg/mL	64/64 μg/mL	64/64 μg/mL	concentrations eliminating the EC biofilm (MBEC range) [3]: 64 to 128 µg/mL
